Data reported in US20030092695A1, “Metal salts of 3-methyl-chromane or thiochromane derivatives” (priority 1999, published 2003).
In brackets after ≈: the same amount, converted by molar mass.

What was measured:
[1] = system: increase in uterus weight by stimulus with estradiol; assay: Anti-estrogenic activity via oral administration (inhibition of estradiol-stimulated uterus weight increase); assay type: in vivo; settings: ovariectomized ICR mice, 17β-estradiol-benzoate 0.1 μg/day s.c. for 3 days, 10 mg/kg p.o., once a day, in 5% arabic gum
Experimental: Oral anti-estrogenic activity in vivo of the test compound was determined according to the method described hereinafter.
In this experiment, the test compound or the control compound was suspended in 5% arabic gum solution and orally administered for 3 days, once a day. After 24 hours from the last administration, the test animal was sacrificed and uterus was removed and weighed.

[2] = Solubility test in FaSSIF or water, shaken at 37° C., filtrate measured by HPLC
Experimental: The degree of improvement in solubility was determined by measuring the solubility of the test compound as follows.
To 1 mg of each compound was added 2 ml of FaSSIF (artificial intestinal juice, bile) or water, which was then shaken at 37° C. After 1, 2 and 20 hours, 200 μm of sample was taken and filtered. The concentration of the filtrate was measured by HPLC and the results are described in the following Table 2.

[3] = FaSSIF, 37 °C, thermodynamic from solid

| solubility at 1 h [2, 3] | solubility at 2 h [2, 3] | solubility at 20 h [2, 3] | Solubility in water (in words) ([2]; water as the solvent) | Compound | Inhibition (%) of the increase in uterus weight by estradiol [1] |
| --- | --- | --- | --- | --- | --- |
|  |  |  |  | C[C@@]1(c2ccc(O)cc2)CSc2cc(O)ccc2[C@@H]1CCCCCCCCC(CCCC(F)(F)C(F)(F)F)C(=O)[O-].[Na+] (mixture of isomers) [Example 1, Sodium (3′RS,4′RS)-10-[7-hydroxy-3-(4-hydroxyphenyl)-3-methylthiochroman-4-yl]-2-(4,4,5,5,5-pentafluoropentyl)decanoate] | 74% |
|  |  |  |  | CC1(c2ccc(O)cc2)CSc2cc(O)ccc2C1CCCCCCCCC(CCCC(F)(F)C(F)(F)F)C(=O)O (stereo not drawn) [(3′RS,4′RS)-10-[7-Hydroxy-3-(4-hydroxyphenyl)-3-methylthiochroman-4-yl]-2-(4,4,5,5,5-pentafluoropentyl)decanoic Acid] | 79% |
| 0.365 µg/mL (≈ 0.602 µM) | 0.474 µg/mL (≈ 0.781 µM) | 1.7 µg/mL (≈ 2.8 µM) | can hardly be solved in water | C[C@]12CC[C@@H]3c4ccc(O)cc4C[C@@H](CCCCCCCCC[S+]([O-])CCCC(F)(F)C(F)(F)F)[C@H]3[C@@H]1CC[C@@H]2O (stereo partly shown) [ICI182,780] | 69% |
